Columns and labels:
Assay in all cases: relative viability (nuclei count vs DMSO), 5 days (fraction); higher = more cells survive
Daporinad + Vorinostat = compound: O=C(/C=C/c1cccnc1)NCCCCC1CCN(C(=O)c2ccccc2)CC1 [Daporinad] + O=C(CCCCCCC(=O)Nc1ccccc1)NO [Vorinostat] (partner 1 µM)
Outline: (§1)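 Relative viability was taken as the ratio of nuclei in treated wells to nuclei in vehicle wells. Lung cancer cell lines in 1536-well plates received compounds by pin tool one day after seeding, either one drug alone or a fixed anchor-drug dose plus five library-drug doses (not always all listed) in √10 steps. Nuclei were counted on 4× images after 5 days of treatment, and values are medians of duplicate plates.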

Daporinad + Bortezomib = compound: O=C(/C=C/c1cccnc1)NCCCCC1CCN(C(=O)c2ccccc2)CC1 [Daporinad] + CC(C)C[C@H](NC(=O)[C@H](Cc1ccccc1)NC(=O)c1cnccn1)B(O)O [Bortezomib] (partner 0.002 µM)
Outline: as §1

R406 + Crizotinib = compound: COc1cc(Nc2ncc(F)c(Nc3ccc4c(n3)NC(=O)C(C)(C)O4)n2)cc(OC)c1OC [R406] + C[C@@H](Oc1cc(-c2cnn(C3CCNCC3)c2)cnc1N)c1c(Cl)ccc(F)c1Cl [Crizotinib] (partner 1 µM)
Outline: as §1

R406 + Palbociclib = compound: COc1cc(Nc2ncc(F)c(Nc3ccc4c(n3)NC(=O)C(C)(C)O4)n2)cc(OC)c1OC [R406] + CC(=O)c1c(C)c2cnc(Nc3ccc(N4CCNCC4)cn3)nc2n(C2CCCC2)c1=O [Palbociclib] (partner 0.5 µM)
Outline: as §1

HOP-62
relative viability (Daporinad + Vorinostat; first compound 0.0005 µM): 0.341
relative viability (Daporinad + Vorinostat; first compound 0.001581 µM): 0.724
relative viability (Daporinad + Vorinostat; first compound 0.005 µM): 0.618
relative viability (Daporinad + Vorinostat; first compound 0.01581 µM): 0.414
relative viability (Daporinad + Bortezomib; first compound 0.001581 µM): 0.84
relative viability (Daporinad + Bortezomib; first compound 0.005 µM): 0.962
relative viability (Daporinad + Bortezomib; first compound 0.01581 µM): 0.26
relative viability (R406 + Crizotinib; first compound 0.08 µM): 1.12
relative viability (R406 + Crizotinib; first compound 0.253 µM): 1.21
relative viability (R406 + Crizotinib; first compound 0.8 µM): 0.844
relative viability (R406 + Crizotinib; first compound 2.53 µM): 1.1
relative viability (R406 + Crizotinib; first compound 8 µM): 1.17
relative viability (R406 + Palbociclib; first compound 0.08 µM): 0.426
relative viability (R406 + Palbociclib; first compound 0.253 µM): 0.533
relative viability (R406 + Palbociclib; first compound 0.8 µM): 0.397
relative viability (R406 + Palbociclib; first compound 2.53 µM): 0.456
relative viability (R406 + Palbociclib; first compound 8 µM): 0.378

LC-2-ad
relative viability (Daporinad + Vorinostat; first compound 0.0005 µM): 0.677
relative viability (Daporinad + Vorinostat; first compound 0.001581 µM): 0.769
relative viability (Daporinad + Vorinostat; first compound 0.005 µM): 0.693
relative viability (Daporinad + Vorinostat; first compound 0.01581 µM): 0.63
relative viability (Daporinad + Bortezomib; first compound 0.0005 µM): 0.978
relative viability (Daporinad + Bortezomib; first compound 0.001581 µM): 1.07
relative viability (Daporinad + Bortezomib; first compound 0.005 µM): 0.952
relative viability (Daporinad + Bortezomib; first compound 0.01581 µM): 0.844
relative viability (R406 + Crizotinib; first compound 0.08 µM): 0.436
relative viability (R406 + Crizotinib; first compound 0.253 µM): 0.456
relative viability (R406 + Crizotinib; first compound 0.8 µM): 0.455
relative viability (R406 + Crizotinib; first compound 2.53 µM): 0.381
relative viability (R406 + Crizotinib; first compound 8 µM): 0.357
relative viability (R406 + Palbociclib; first compound 0.08 µM): 0.414
relative viability (R406 + Palbociclib; first compound 0.253 µM): 0.571
relative viability (R406 + Palbociclib; first compound 0.8 µM): 0.501
relative viability (R406 + Palbociclib; first compound 2.53 µM): 0.408
relative viability (R406 + Palbociclib; first compound 8 µM): 0.277

LCLC-97TM1
relative viability (Daporinad + Vorinostat; first compound 0.0005 µM): 0.547
relative viability (Daporinad + Vorinostat; first compound 0.001581 µM): 0.686
relative viability (Daporinad + Vorinostat; first compound 0.005 µM): 0.867
relative viability (Daporinad + Vorinostat; first compound 0.01581 µM): 1.1
relative viability (Daporinad + Bortezomib; first compound 0.0005 µM): 0.302
relative viability (Daporinad + Bortezomib; first compound 0.001581 µM): 0.604
relative viability (Daporinad + Bortezomib; first compound 0.005 µM): 0.657
relative viability (Daporinad + Bortezomib; first compound 0.01581 µM): 0.533
relative viability (R406 + Crizotinib; first compound 0.08 µM): 0.418
relative viability (R406 + Crizotinib; first compound 0.253 µM): 0.443
relative viability (R406 + Crizotinib; first compound 0.8 µM): 0.38
relative viability (R406 + Crizotinib; first compound 2.53 µM): 0.29
relative viability (R406 + Crizotinib; first compound 8 µM): 0.244
relative viability (R406 + Palbociclib; first compound 0.08 µM): 0.34
relative viability (R406 + Palbociclib; first compound 0.253 µM): 0.218
relative viability (R406 + Palbociclib; first compound 0.8 µM): 0.273
relative viability (R406 + Palbociclib; first compound 2.53 µM): 0.185
relative viability (R406 + Palbociclib; first compound 8 µM): 0.217

LCLC-103H
relative viability (Daporinad + Vorinostat; first compound 0.0005 µM): 0.747
relative viability (Daporinad + Vorinostat; first compound 0.001581 µM): 0.835
relative viability (Daporinad + Vorinostat; first compound 0.005 µM): 0.864
relative viability (Daporinad + Vorinostat; first compound 0.01581 µM): 0.999
relative viability (Daporinad + Bortezomib; first compound 0.0005 µM): 1.11
relative viability (Daporinad + Bortezomib; first compound 0.001581 µM): 1
relative viability (Daporinad + Bortezomib; first compound 0.005 µM): 1.07
relative viability (Daporinad + Bortezomib; first compound 0.01581 µM): 1.04
relative viability (R406 + Crizotinib; first compound 0.08 µM): 1.07
relative viability (R406 + Crizotinib; first compound 0.253 µM): 1.24
relative viability (R406 + Crizotinib; first compound 0.8 µM): 0.954
relative viability (R406 + Crizotinib; first compound 2.53 µM): 0.971
relative viability (R406 + Crizotinib; first compound 8 µM): 0.828
relative viability (R406 + Palbociclib; first compound 0.08 µM): 0.45
relative viability (R406 + Palbociclib; first compound 0.253 µM): 0.507
relative viability (R406 + Palbociclib; first compound 0.8 µM): 0.529
relative viability (R406 + Palbociclib; first compound 2.53 µM): 0.46
relative viability (R406 + Palbociclib; first compound 8 µM): 0.319

LOU-NH91
relative viability (Daporinad + Vorinostat; first compound 0.0005 µM): 0.929
relative viability (Daporinad + Vorinostat; first compound 0.001581 µM): 1.01
relative viability (Daporinad + Vorinostat; first compound 0.005 µM): 1.1
relative viability (Daporinad + Vorinostat; first compound 0.01581 µM): 1.02
relative viability (Daporinad + Bortezomib; first compound 0.0005 µM): 0.532
relative viability (Daporinad + Bortezomib; first compound 0.001581 µM): 0.465
relative viability (Daporinad + Bortezomib; first compound 0.005 µM): 0.559
relative viability (Daporinad + Bortezomib; first compound 0.01581 µM): 0.559
relative viability (R406 + Crizotinib; first compound 0.08 µM): 0.745
relative viability (R406 + Crizotinib; first compound 0.253 µM): 0.728
relative viability (R406 + Crizotinib; first compound 0.8 µM): 0.756
relative viability (R406 + Crizotinib; first compound 2.53 µM): 0.504
relative viability (R406 + Crizotinib; first compound 8 µM): 0.57
relative viability (R406 + Palbociclib; first compound 0.08 µM): 0.532
relative viability (R406 + Palbociclib; first compound 0.253 µM): 0.547
relative viability (R406 + Palbociclib; first compound 0.8 µM): 0.499
relative viability (R406 + Palbociclib; first compound 2.53 µM): 0.552
relative viability (R406 + Palbociclib; first compound 8 µM): 0.538

LU99A
relative viability (Daporinad + Vorinostat; first compound 0.0005 µM): 0.499
relative viability (Daporinad + Vorinostat; first compound 0.001581 µM): 0.594
relative viability (Daporinad + Vorinostat; first compound 0.005 µM): 0.545
relative viability (Daporinad + Vorinostat; first compound 0.01581 µM): 0.571
relative viability (Daporinad + Bortezomib; first compound 0.0005 µM): 1.11
relative viability (Daporinad + Bortezomib; first compound 0.001581 µM): 1.17
relative viability (Daporinad + Bortezomib; first compound 0.005 µM): 1.36
relative viability (Daporinad + Bortezomib; first compound 0.01581 µM): 1.44
relative viability (R406 + Crizotinib; first compound 0.08 µM): 0.474
relative viability (R406 + Crizotinib; first compound 0.253 µM): 0.553
relative viability (R406 + Crizotinib; first compound 0.8 µM): 0.607
relative viability (R406 + Crizotinib; first compound 8 µM): 0.218
relative viability (R406 + Palbociclib; first compound 0.08 µM): 0.343
relative viability (R406 + Palbociclib; first compound 0.253 µM): 0.392
relative viability (R406 + Palbociclib; first compound 0.8 µM): 0.422
relative viability (R406 + Palbociclib; first compound 2.53 µM): 0.273
relative viability (R406 + Palbociclib; first compound 8 µM): 0.26

LXF-289
relative viability (Daporinad + Vorinostat; first compound 0.0005 µM): 0.692
relative viability (Daporinad + Vorinostat; first compound 0.001581 µM): 0.937
relative viability (Daporinad + Vorinostat; first compound 0.005 µM): 0.794
relative viability (Daporinad + Vorinostat; first compound 0.01581 µM): 0.96
relative viability (Daporinad + Bortezomib; first compound 0.0005 µM): 0.965
relative viability (Daporinad + Bortezomib; first compound 0.001581 µM): 1.08
relative viability (Daporinad + Bortezomib; first compound 0.005 µM): 1.05
relative viability (Daporinad + Bortezomib; first compound 0.01581 µM): 1.07
relative viability (R406 + Crizotinib; first compound 0.08 µM): 0.739
relative viability (R406 + Crizotinib; first compound 0.253 µM): 0.918
relative viability (R406 + Crizotinib; first compound 0.8 µM): 0.833
relative viability (R406 + Crizotinib; first compound 2.53 µM): 0.832
relative viability (R406 + Crizotinib; first compound 8 µM): 0.259
relative viability (R406 + Palbociclib; first compound 0.08 µM): 0.589
relative viability (R406 + Palbociclib; first compound 0.253 µM): 0.621
relative viability (R406 + Palbociclib; first compound 0.8 µM): 0.623
relative viability (R406 + Palbociclib; first compound 2.53 µM): 0.596
relative viability (R406 + Palbociclib; first compound 8 µM): 0.596

NCI-H23
relative viability (Daporinad + Vorinostat; first compound 0.0005 µM): 0.624
relative viability (Daporinad + Vorinostat; first compound 0.001581 µM): 0.251
relative viability (Daporinad + Vorinostat; first compound 0.005 µM): 0.586
relative viability (Daporinad + Vorinostat; first compound 0.01581 µM): 0.2
relative viability (Daporinad + Bortezomib; first compound 0.0005 µM): 1.18
relative viability (Daporinad + Bortezomib; first compound 0.001581 µM): 0.919
relative viability (Daporinad + Bortezomib; first compound 0.005 µM): 0.888
relative viability (Daporinad + Bortezomib; first compound 0.01581 µM): 0.427
relative viability (R406 + Crizotinib; first compound 0.08 µM): 0.458
relative viability (R406 + Crizotinib; first compound 0.253 µM): 0.607
relative viability (R406 + Crizotinib; first compound 0.8 µM): 0.571
relative viability (R406 + Crizotinib; first compound 2.53 µM): 0.439
relative viability (R406 + Crizotinib; first compound 8 µM): 0.285
relative viability (R406 + Palbociclib; first compound 0.08 µM): 0.496
relative viability (R406 + Palbociclib; first compound 0.253 µM): 0.539
relative viability (R406 + Palbociclib; first compound 0.8 µM): 0.629
relative viability (R406 + Palbociclib; first compound 2.53 µM): 0.454
relative viability (R406 + Palbociclib; first compound 8 µM): 0.155

NCI-H322M
relative viability (Daporinad + Vorinostat; first compound 0.0005 µM): 0.891
relative viability (Daporinad + Vorinostat; first compound 0.001581 µM): 0.877
relative viability (Daporinad + Vorinostat; first compound 0.005 µM): 0.831
relative viability (Daporinad + Vorinostat; first compound 0.01581 µM): 0.669
relative viability (Daporinad + Bortezomib; first compound 0.0005 µM): 1.24
relative viability (Daporinad + Bortezomib; first compound 0.001581 µM): 1.37
relative viability (Daporinad + Bortezomib; first compound 0.005 µM): 1.04
relative viability (Daporinad + Bortezomib; first compound 0.01581 µM): 0.625
relative viability (R406 + Crizotinib; first compound 0.08 µM): 0.811
relative viability (R406 + Crizotinib; first compound 0.253 µM): 1.06
relative viability (R406 + Crizotinib; first compound 0.8 µM): 0.978
relative viability (R406 + Crizotinib; first compound 2.53 µM): 0.611
relative viability (R406 + Crizotinib; first compound 8 µM): 0.438
relative viability (R406 + Palbociclib; first compound 0.08 µM): 0.463
relative viability (R406 + Palbociclib; first compound 0.253 µM): 0.452
relative viability (R406 + Palbociclib; first compound 0.8 µM): 0.468
relative viability (R406 + Palbociclib; first compound 2.53 µM): 0.456
relative viability (R406 + Palbociclib; first compound 8 µM): 0.354

— the supplement of paper PMC10307832
